Columns and labels:
[1] = Hydrodynamic range by quasi-elastic or static light diffusion (SLD); format: physicochemical
Procedure: (§1) In order to find the characteristic dimension of the GLDs in solution, the hydrodynamic ranges were determined from the molecular diffusion coefficients by using the Stoke-Einstein ratio:
(§2) where η is the viscosity of the medium, k the Boltzmann constant and T the temperature in K. In order to determine Dm, two experimental methods were used: quasi-elastic or static light diffusion (SLD) (coupled or not coupled with SEC), and the Taylor diffusion method (TDA). This latter method makes it possible to measure the diffusion coefficient of a species from the widening of a solute band under the influence of a hydrodynamic flow the speed profile of which is known to be dispersive (parabolic Poiseuille profile).
(§3) The TDA measurements were carried out using a capillary electrophoresis appliance, using silica capillaries of 50 μm i.d. (60 cm×50 cm up to the detector) the internal surface of which was previously modified by grafting a polycation (poly(diallyl-dimethyl-ammonium)) in order to limit the adsorption of the GLD solutes on the surface of the capillary. Dispersion of the solute band under the influence of the Poiseuille flow was measured using a UV spectrophotometer. The diffusion coefficient was then determined according to the method originally described by Taylor, then repeated by Bello et al.. In parallel to the TDA method, measurements were carried out by SLD, using a zetasizer (Malvern) device. Finally, it was also possible to obtain Rh measurements from the 3D-SEC (Viscotek). All of the numerical data for Rh is shown together in Table 3.

[2] = Hydrodynamic range by Taylor diffusion analysis (TDA); format: physicochemical
Procedure: as §1, §2, §3

[3] = Buffer 1 (H2PO4−Na+ 50 g/L, pH 4.5)
[4] = Buffer 2 (Buffer 1 + 3% acetonitrile)
[5] = Buffer 3 (physiological buffer, pH 7.0)

Substance: linear poly-L-Lysine [P1]
- Rh (nm) hydrodynamic range [1, 3]: 1.18 nm
- Rh (nm) hydrodynamic range [1, 4]: 1.1 nm
- Rh (nm) hydrodynamic range [1, 5]: 1.01 nm
- Rh (nm) hydrodynamic range [2, 3]: 1.1 nm
- Rh (nm) hydrodynamic range [2, 4]: 0.95 nm
- Rh (nm) hydrodynamic range [2, 5]: 0.74 nm

Reference: patent US20080206183A1, “Method of Preparing Grafted Polylysine Dendrimers” (Central national De La Recherche Scientifique, priority 2005, published 2008)
